Measured values as given in patent US5189021A, “Method of treating precocious puberty” (Roussel Uclaf, priority 1979, dated 1993).

Assays:
[1] = system: testicular steroidogensis; test: Inhibitory activity against testicular steroidogenesis in men in good health, single intranasal dose; assay type: in vivo
Description: The inhibitory activity of [D Ser (tbu)^6 of des GlyNH^10 ] LH-RH ethylamide (described in German application Ser. No. 2,438,350) against testicular steroidogensis in men in good health was determined on men in good health aged 30 to 40 years. The said product was administered intranasally at a dose of 500 μg in a few drops of distilled water at 8 A.M. on the third day of the test. For 2 days prior to the treatment and for 6 days after the treatment, samples of blood were taken daily at 8 A.M., 3 P.M. and 10 P.M. On the day of administration of the LH-RH agonist, blood samples were taken at 11 A.M. and 6 P.M.
The seric concentrations of LH and FSH were measured by radioimmuno-logic dosages with double antibodies and the antibodies for measuring LH and FSH were furnished by the National Pituitary Agency of N.I.H. in Bethesda, Md. The seric concentrations of steroids was measured by radio-immuno-logic dosages in which one ml of serum was extracted with ether and the steroids were separated on a LH-20 column before measuring with radioimmuno-logic dosages. The radio-immuno-logic dosage results were determined by a program derived from model II of Rodbard et al [Second Karolinska Symposium on Research Methods in Reproductive Endroerinology Diczfalusky Editor, Copenhague (1970), p. 79-103]. The statistical significance was determined by the "multiple level test" of Duncan-Kramer [Kramer, Biometrics, Vol 12 (1956), p. 307]. The results are shown in the graphs on sheet 1 of the Figures filed herewith.

[2] = system: testicular steriodogenosis; test: Inhibitory activity on testicular steroidogenesis in a patient with prostate cancer; assay type: in vivo, human; conditions: 500 μg intranasally twice a day
Description: The inhibitory activity of [D Ser (tbu)^6 of des GlyNH2^10 ] […] The results are reported in the graphs of sheet 2 of the Figures.

[3] = system: ovarian steroidogenosis; test: Inhibitory activity on ovarian steroidogenesis in women; assay type: in vivo; conditions: for reduction of seric levels of progesterone compared to the controls: typical levels (sheet 3)
Description: The inhibitory activity of [D Ser (tbu)^6 of des GlyNH2^10 ] LH-RH ethylamide on ovarian steroidogenosis in women was determined on 6 women aged 26 to 35 years with normal and regular menstrual cycles and without prior endocrinal or gynecological problems. The study was conducted for 6 consecutive cycles consisting of 2 pretreatment cycles, 2 treatment cycles and 2 post-treatment cycles. Two drops of a solution containing 500 μg of [D Ser (tbu)^6 des GlyNH2^10 ] LH-RH ethylamide were deposited on each nostril at 8 A.M. and 5 P.M. of a day between the 4th and 9th day after the peak of LH-day 0. Daily blood samples were taken between 4 and 6 P.M. to measure seric levels of LH, FSH, progesterone and estradiol which were determined by radioimmumo-logictests with double antibodies. The antibodies to measure LH and FSH were furnished by the National Pituitory Agency of N.I.H. of Bethesda, Md.
Estradiol and progesterone were measured with highly specific antibodies developed against 7-(O-carboxymethyl)-oxime of estradiol and 12-(O-carboxymethyl)-oxime of progesterone, respectively [3H] 17β-estradiol and ^125 I-progesterone-12-[O-carboxymethyl)-oxime]used as tracers. The serum was extracted with benzene and the steroids were separated with a LH-20 column before the determination. The radioimmunological results were exploited by the program derived from model II of Rodbard and Lewald as in Example 1 and the statistical significance was measured by the multiple level test of Ducan-Kramer of Example 1. The results are shown in the graphs of sheets 3 to 5 of the Figures.

[4] = 3rd day following administration, intranasal 500 μg
[5] = after single intranasal dose of 500 μg

`CCNC(=O)[C@@H]1CCCN1C(=O)[C@H](CCCNC(=N)N)NC(=O)[C@H](CC(C)C)NC(=O)[C@@H](COC(C)(C)C)NC(=O)[C@H](Cc1ccc(O)cc1)NC(=O)[C@H](CO)NC(=O)[C@H](Cc1c[nH]c2ccccc12)NC(=O)[C@H](Cc1c[nH]cn1)NC(=O)[C@@H]1CCC(=O)N1` [[D Ser (tbu)^6 des GlyNH2^10] LH-RH ethylamide] was tested, and the “concentration of 17-OH-progesterone relative to the initial control values” [1, 4] was 40%, the “concentration of testosterone relative to the initial control values” [1, 4] was 50% and the “day on which the steroid level returned to normal” value [1, 5] was “fourth day”. The “duration of the drop of seric levels of testicular steroids (testosterone and its precursors)” value [1, 5] was 3 days, the “LH and FSH plasmatic levels” value ([1]; intranasal 500 μg) was “increase” and the “seric concentration of pregnenolone, 17-OH-pregnenolone, progesterone, 17-OH-progesterone, Δ5-androstene-3β,17β-diol and testosterone” value ([1]; on the day of treatment, intranasal 500 μg) was “increased”. For the same compound, the “diminution of the level of testosterone” value ([1]; single intranasal dose of 500 μg, human, 3rd day following administration) was 50%, the “androgenic steroids (plasmatic level)” value ([2]; prostate cancer patient) was “diminution” and the level of testosterone ([2]; two weeks of treatment) was “stabilized at a very low level”. For the same compound, the “level of progesterone reduced as compared to the controls” value ([3]; 12 cycles, sheet 5, scale 13 to 127%) was 46%, the “level of progesterone as % of control values (pretreatment cycles = 100%)” value ([3]; cycles of post-treatment, 12 cycles) was 99% and the “level of progesterone as % of control values (pretreatment cycles = 100%)” value ([3]; cycles of treatment, 12 cycles) was 46%. The “reduction of seric levels of progesterone compared to the controls” value ([3]; first cycle of treatment) was 13%, the “reduction of seric levels of progesterone compared to the controls” value ([3]; second cycle of treatment) was 34% and the “level of seric progesterone in the 2 cycles of treatment” value ([3]; sheet 4) was “accelerated diminution”.
